Test results reported in patent publication US20240228458A1, “PYRIMIDINE DERIVATIVE HAVING PROTEIN KINASE INHIBITORY ACTIVITY, AND THERAPEUTIC PHARMACEUTICAL COMPOSITION COMPRISING SAME” (THERAPEX CO., LTD., priority 2021, published 2024).

How the values were obtained:
Assay type in all cases: cell-based
[1] = tested on: Ba/F3 cells expressing del19/T790M/C797S (EGFR-DTC); assay: Growth inhibition (GI50) of Ba/F3 cells expressing del19/T790M/C797S (EGFR-DTC), Celltiter glo; conditions: Mus musculus, BaF3, 72 h
Outline: (§1)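 Ba/F3 cells carrying the given EGFR variant were seeded at 100,000 cells/ml and, 4 h later, treated with 10-point, 4-fold serial dilutions prepared from a 2 mM stock (0.5% DMSO final). After 72 h at 37 °C and 5% CO2, viable cells were quantified by CellTiter-Glo luminescence to derive GI50.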

[2] = tested on: parental Ba/F3 cell line; assay: Growth inhibition (GI50) of the parental Ba/F3 cell line (not introduced with EGFR variants), Celltiter glo; conditions: Mus musculus, BaF3, 72 h, parental Ba/F3 cells
Outline: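 Parental Ba/F3 cells (100,000 cells/ml) were treated with 10-point, 4-fold compound dilutions (0.5% DMSO; top stock 2 mM) for 72 h at 37 °C, 5% CO2. Viability was read by CellTiter-Glo; GI50 is the concentration (μM) giving 50% growth inhibition.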

[3] = tested on: Ba/F3 cells expressing L858R/T790M/C797S (EGFR-LTC); assay: Growth inhibition (GI50) of Ba/F3 cells expressing L858R/T790M/C797S (EGFR-LTC), Celltiter glo; conditions: Mus musculus, BaF3, 72 h
Outline: as §1

[4] = tested on: Ba/F3 cells expressing EGFR-wt; assay: Growth inhibition (GI50) of Ba/F3 cells expressing EGFR-wt, Celltiter glo; conditions: Mus musculus, BaF3, 72 h
Outline: as §1

Structure (SMILES) | GI50 [1] | GI50 [2] | GI50 [3] | GI50 [4]
CN1CCN(C2CCN(c3ccc4cc(Nc5ncc(Cl)c(Nc6cc(Cl)c(Cl)cc6NS(C)(=O)=O)n5)ccc4n3)CC2)CC1 [Example 102, N-(4,5-dichloro-2-((5-chloro-2-((2-(4-(4-methylpiperazin-1-yl)piperidin-1-yl)quinolin-6-yl)amino)pyrimidin-4-yl)amino)phenyl)methanesulfonamide] | 0.5 to 2 µM | 2 to 10 µM | 0.1 to 0.5 µM | 0.5 to 2 µM
COc1cc(N2CCC(N3CCN(C)CC3)CC2)c(Cl)cc1Nc1ncc(Cl)c(Nc2cc(Cl)c(Cl)cc2NS(C)(=O)=O)n1 [Example 103] | 0.1 to 0.5 µM | 2 to 10 µM | 0.025 to 0.1 µM | 0.5 to 2 µM
COc1cc(N2CCC(N(C)CCN(C)C)CC2)c(C)cc1Nc1ncc(Cl)c(Nc2cc(Cl)c(Cl)cc2NS(C)(=O)=O)n1 [Example 104, N-(4,5-dichloro-2-((5-chloro-2-((4-(4-((2-(dimethylamino)ethyl)(methyl)amino)piperidin-1-yl)-2-methoxy-5-methylphenyl)amino)pyrimidin-4-yl)amino)phenyl)methanesulfonamide] | 0.5 to 2 µM | 0.5 to 2 µM | 0.5 to 2 µM | 0.5 to 2 µM
COc1cc(N(C)CCCN2CCN(C)CC2)c(C)cc1Nc1ncc(Cl)c(Nc2cc(Cl)c(Cl)cc2NS(C)(=O)=O)n1 [Example 105, N-(4,5-dichloro-2-((5-chloro-2-((2-methoxy-5-methyl-4-(methyl(3-(4-methylpiperazin-1-yl)propyl)amino)phenyl)amino)pyrimidin-4-yl)amino)phenyl)methanesulfonamide] | > 10 µM | > 10 µM | > 10 µM | > 10 µM
COc1cc(N2CCC(N3CCN(C)CC3)CC2)c(C)cc1Nc1ncc(Br)c(Nc2cc(C)ccc2NS(C)(=O)=O)n1 [Example 106, N-(2-((5-bromo-2-((2-methoxy-5-methyl-4-(4-(4-methylpiperazin-1-yl)piperidin-1-yl)phenyl)amino)pyrimidin-4-yl)amino)-4-methylphenyl)methanesulfonamide] | 0.001 to 0.025 µM | 0.5 to 2 µM | 0.025 to 0.1 µM | 0.5 to 2 µM
COc1cc(N2CCC(N3CCN(C)CC3)CC2)c(Cl)cc1Nc1ncc(Br)c(Nc2cc(C)ccc2NS(C)(=O)=O)n1 [Example 107, N-(2-((5-bromo-2-((5-chloro-2-methoxy-4-(4-(4-methylpiperazin-1-yl)piperidin-1-yl)phenyl)amino)pyrimidin-4-yl)amino)-4-methylphenyl)methanesulfonamide] | 0.025 to 0.1 µM | 0.5 to 2 µM | 0.1 to 0.5 µM | 0.5 to 2 µM
COc1cc(N2CCC(N3CCN(C)CC3)CC2)c(F)cc1Nc1ncc(Br)c(Nc2cc(C)ccc2NS(C)(=O)=O)n1 [Example 108] | 0.025 to 0.1 µM | 2 to 10 µM | 0.1 to 0.5 µM | 0.5 to 2 µM
Cc1ccc(NS(C)(=O)=O)c(Nc2nc(Nc3cc(C)c(N4CCC(N5CCN(C)CC5)CC4)cc3Cl)ncc2Br)c1 [Example 109, N-(2-((5-bromo-2-((2-chloro-5-methyl-4-(4-(4-methylpiperazin-1-yl)piperidin-1-yl)phenyl)amino)pyrimidin-4-yl)amino)-4-methylphenyl)methanesulfonamide] | 0.025 to 0.1 µM | 0.5 to 2 µM | 0.001 to 0.025 µM | 0.1 to 0.5 µM
COc1cc(N2CCC(N3CCN(C)CC3)CC2)c(C)cc1Nc1ncc(Cl)c(N(c2ccc3scnc3c2NS(C)(=O)=O)S(C)(=O)=O)n1 [Example 110, N-(5-chloro-2-((2-methoxy-5-methyl-4-(4-(4-methylpiperazin-1-yl)piperidin-1-yl)phenyl)amino)pyrimidin-4-yl)-N-(4-(methylsulfonamido)benzo[d]thiazol-5-yl)methanesulfonamide] | 0.1 to 0.5 µM | 0.5 to 2 µM | 0.025 to 0.1 µM | 0.1 to 0.5 µM
CN1CCN(C2CCN(c3ccc(Nc4ncc(Cl)c(N(c5ccc6scnc6c5NS(C)(=O)=O)S(C)(=O)=O)n4)cc3F)CC2)CC1 [Example 112, N-(5-chloro-2-((3-fluoro-4-(4-(4-methylpiperazin-1-yl)piperidin-1-yl)phenyl)amino)pyrimidin-4-yl)-N-(4-(methylsulfonamido)benzo[d]thiazol-5-yl)methanesulfonamide] | 0.025 to 0.1 µM | 0.1 to 0.5 µM | 0.025 to 0.1 µM | 0.1 to 0.5 µM
CN1CCN(C2CCN(c3ncc(Nc4ncc(Cl)c(N(c5ccc6scnc6c5NS(C)(=O)=O)S(C)(=O)=O)n4)cc3F)CC2)CC1 [Example 113, N-(5-chloro-2-((5-fluoro-6-(4-(4-methylpiperazin-1-yl)piperidin-1-yl)pyridin-3-yl)amino)pyrimidin-4-yl)-N-(4-(methylsulfonamido)benzo[d]thiazol-5-yl)methanesulfonamide] | 0.5 to 2 µM | 2 to 10 µM | 0.5 to 2 µM | 2 to 10 µM
COc1cc(N2CCC(N3CCN(C)CC3)CC2)c(Cl)cc1Nc1ncc(Cl)c(N(c2ccc3scnc3c2NS(C)(=O)=O)S(C)(=O)=O)n1 [Example 114, N-(5-chloro-2-((5-chloro-2-methoxy-4-(4-(4-methylpiperazin-1-yl)piperidin-1-yl)phenyl)amino)pyrimidin-4-yl)-N-(4-(methylsulfonamido)benzo[d]thiazol-5-yl)methanesulfonamide] | 0.1 to 0.5 µM | 0.5 to 2 µM | 0.1 to 0.5 µM | 0.5 to 2 µM
COc1nc(N2CCC(N3CCN(C)CC3)CC2)c(C)cc1Nc1ncc(Cl)c(Nc2ccc3ncccc3c2NS(C)(=O)=O)n1 [Example 116, N-(6-((5-chloro-2-((2-methoxy-5-methyl-6-(4-(4-methylpiperazin-1-yl)piperidin-1-yl)pyridin-3-yl)amino)pyrimidin-4-yl)amino)quinolin-5-yl)methanesulfonamide] | 0.025 to 0.1 µM | 2 to 10 µM | 0.1 to 0.5 µM | 0.5 to 2 µM
COc1nc(N2CCC(N3CCOCC3)CC2)ccc1Nc1ncc(Cl)c(Nc2ccc3ncccc3c2NS(C)(=O)=O)n1 [Example 117, N-(6-((5-chloro-2-((2-methoxy-6-(4-morpholinopiperidin-1-yl)pyridin-3-yl)amino)pyrimidin-4-yl)amino)quinolin-5-yl)methanesulfonamide] | 0.5 to 2 µM | 2 to 10 µM | 0.5 to 2 µM | 0.5 to 2 µM
COc1cc(N2CCC(N3CCN(C)CC3)CC2)c(Cl)cc1Nc1ncc(Cl)c(Nc2ccc3ncccc3c2NS(C)(=O)=O)n1 [Example 118] | 0.1 to 0.5 µM | > 10 µM | 0.1 to 0.5 µM | 0.5 to 2 µM
COc1cc(N2CCN(C)CC2)ccc1Nc1ncc(Cl)c(Nc2ccc3ncccc3c2NS(C)(=O)=O)n1 [Example 119, N-(6-((5-chloro-2-((2-methoxy-4-(4-methylpiperazin-1-yl)phenyl)amino)pyrimidin-4-yl)amino)quinolin-5-yl)methanesulfonamide] | 0.5 to 2 µM | 2 to 10 µM | 0.5 to 2 µM | 0.5 to 2 µM
COc1cc(N2CCC(N3CCN(C)CC3)CC2)c(C)cc1Nc1ncc(Cl)c(N(C)c2ccccc2NS(C)(=O)=O)n1 [Example 120, N-(2-((5-chloro-2-((2-methoxy-5-methyl-4-(4-(4-methylpiperazin-1-yl)piperidin-1-yl)phenyl)amino)pyrimidin-4-yl)(methyl)amino)phenyl)methanesulfonamide] | 2 to 10 µM | > 10 µM | 2 to 10 µM | 2 to 10 µM
COc1nc(N2CCC(N3CCN(C)CC3)CC2)c(C)cc1Nc1ncc(Cl)c(N(C)c2ccccc2NS(C)(=O)=O)n1 [Example 121, N-(2-((5-chloro-2-((2-methoxy-5-methyl-6-(4-(4-methylpiperazin-1-yl)piperidin-1-yl)pyridin-3-yl)amino)pyrimidin-4-yl)(methyl)amino)phenyl)methanesulfonamide] | 2 to 10 µM | > 10 µM | 2 to 10 µM | 2 to 10 µM
COc1nc(N2CCC(N3CCN(C)CC3)CC2)c(C)cc1Nc1ncc(Cl)c(Nc2ccc3nccnc3c2P(C)(C)=O)n1 [Example 122, (6-((5-chloro-2-((2-methoxy-5-methyl-6-(4-(4-methylpiperazin-1-yl)piperidin-1-yl)pyridin-3-yl)amino)pyrimidin-4-yl)amino)quinoxalin-5-yl)dimethylphosphine oxide] | 0.1 to 0.5 µM | 0.5 to 2 µM | 0.025 to 0.1 µM | 0.1 to 0.5 µM
COc1nc(N2CCC(N3CCN(C)CC3)CC2)ccc1Nc1ncc(Cl)c(Nc2ccc3nccnc3c2P(C)(C)=O)n1 [Example 123, (6-((5-chloro-2-((2-methoxy-6-(4-(4-methylpiperazin-1-yl)piperidin-1-yl)pyridin-3-yl)amino)pyrimidin-4-yl)amino)quinoxalin-5-yl)dimethylphosphine oxide] | 0.1 to 0.5 µM | 2 to 10 µM | 0.1 to 0.5 µM | 0.5 to 2 µM
CN1CCN(C2CCN(c3ncc(Nc4ncc(Cl)c(Nc5ccc6nccnc6c5P(C)(C)=O)n4)cc3F)CC2)CC1 [Example 124, (6-((5-chloro-2-((5-fluoro-6-(4-(4-methylpiperazin-1-yl)piperidin-1-yl)pyridin-3-yl)amino)pyrimidin-4-yl)amino)quinoxalin-5-yl)dimethylphosphine oxide] | 0.025 to 0.1 µM | 0.1 to 0.5 µM | 0.025 to 0.1 µM | 0.1 to 0.5 µM
